Test results taken from patent publication US6436630B1, “Method for testing the toxicity of chemical substances using gastropods” (priority 1998, dated 2002).
Read-outs that look alike come from different tables or passages of the source. Values belong to the substance of their own block, whether it stands above or below them.

Key:
Assay type in all cases: in vivo
[1] = system: foot mucosa of slugs (species Arion); test: Slug mucosal toxicity test, Example 1 (15 min daily treatment, five days); conditions: for % WL, reduction in weight (weight loss) caused by the 15 minute treatment as % of initial body weight of the day / % MP, mucus production as % of the body weight at the start of the day before the treatment: 1% w/v in PBS; for % MP, mucus production as % of the body weight at the start of the day before the treatment / ALP released into PBS / LDH released into PBS / Protein released into PBS: 15 min; for ALP released into PBS / LDH released into PBS / Protein released into PBS: total mean of 7 samples/day per slug
Excerpt: Initially, the slugs are kept on a culture under controlled conditions of temperature and humidity until they have reached a stable body weight. The purpose of achieving a stable body weight is to improve the reproducibility of the results, particularly as the release of substances from the slugs may conveniently be measured in terms of the body weight thereof. The slugs are then isolated from the culture and placed in a vented plastic box lined with moist paper towel and placed at 95% relative humidity at 20° C. seven days before the start of an experiment. The slugs were not bred in any particular way, i.e. they were wild slugs. It is anticipated that even more accurate and reproducible results can be obtained by selective breeding of the slugs, although as shown by the test results this is not a necessary requirement of the present invention to obtain accurate and useful data.
The test procedure is simple and rapid. The chemical substance to be tested is applied directly to the mucosal membrane of a slug, e.g. to the foot, by placing the slug individually in a petri dish containing the test substance. Slugs treated with phosphate buffered saline are used as a negative control. As a positive control slugs treated with a known toxic substance, benzalkonium chloride, were used.
Because the mucosal epithelium of interest is located at the outside of the slug the effect of substances can be easily observed. […] This can also be simply measured by weighing the petri dish before and after the treatment of the slugs with the chemical substance (with the slugs removed in each case). Additionally an indirect response to epithelial damage caused by a chemical substance may be determined by the reduction of the body weight of the slugs due to the leakage of haemolymphatic fluids through the damaged foot surface.
After the treatment the slugs are transferred individually to a fresh petri dish containing phosphate buffered saline. After a suitable exposure time, e.g. 1 hour the phosphate buffered saline is collected and analysed for the presence of proteins and/or enzymes, e.g. lactate dehydrogenase and/or alkaline phosphatase, or other marker substances released from the foot or epithelium of the slug, for example membrane associated components such as phospholipids or cholesterol. This procedure can be repeated after periods of several hours in order to determine the reversibility of the cell damage caused by the test chemical substance. The concentration or amount of the chemical substance to be tested can be changed and the influence of the concentration can be easily examined. The exposure time can also be changed if required. The slugs can be treated during several successive days in order to investigate the subchronical effect of substances on the foot mucosa.
Seven days before the start of the experiment the slugs were isolated in a plastic box lined with moist paper towel and placed at 95% relative humidity at 20° C. As test substances didecanyol-L-α-phosphatidylcholine (DDPC) and sodium deoxycholate (SDC) were selected. Benzalkonium chloride (1% w/v), SDC (1% w/v) and DDPC (1%, w/v) were prepared in phosphate buffered saline (PBS, pH 7.4). […] During the test the slugs are preferably kept in a generally calm and normal state and are not subjected to mechanical vibrations or mechanical or electrical disturbances which may affect mucus production.
The enzymes (lactate dehydrogenase (LDH) and alkaline phosphatase (ALP)) and total protein released into the PBS were determined. The slugs were weighed before and after the incubation period to determine the body weight changes. The mucus production was measured by weighing the petri dishes before and after the treatment with a test substance. The results are shown in Table 1 and shown graphically in FIGS. 1 to 5.

[2] = system: foot mucosa of slugs of species Arion
[3] = system: foot mucosa of slugs of species Limax; conditions: for % MP, mucus production as % of the body weight at the start of the day before the treatment: 1% w/v (HPβCD 5% w/v) in PBS, 15 min; for ALP released into PBS / LDH released into PBS / Protein released into PBS: 1% w/v (HPβCD 5% w/v), total mean of 7 samples/day per slug
Protocol: Slugs of the species Limax are terrestial slugs have lungs and also a small internal shell. As test substances hydroxypropyl-β-cyclodextrin (HPβCD), sodium tauro-24,25-dihdrofiisidate (STDHF) and sodium deoxycholate were selected. Benzalkonium chloride (1% w/v), HPβCD (5% w/v), STDHF (1% w/v) and SDC (1% w/v) were prepared in phosphate buffered saline (PBS, pH 7.4).
The enzymes lactate dehydrogenase (LDH) and alkaline phosphatase (ALP) and total protein released into the PBS were determined. The change in body weight and mucus production caused by the treatment were examined.

Substance: sodium deoxycholate [SDC]
membrane damage (in words) ([1]; 1% w/v, 15 min daily, five days): severe membrane damage
% WL, reduction in weight (weight loss) caused by the 15 minute treatment as % of initial body weight of the day ([1]; day 1): 12.73%
% MP, mucus production as % of the body weight at the start of the day before the treatment ([1]; day 1): 7.6%
ALP released into PBS ([1]; day 1, 1% w/v): 13.49 U/L
LDH released into PBS ([1]; day 1, 1% w/v): 14.07 U/L
Protein released into PBS ([1]; day 1, 1% w/v): 19.92 μg/30 μL
% WL, reduction in weight (weight loss) caused by the 15 minute treatment as % of initial body weight of the day ([1]; day 2): 12.60%
% MP, mucus production as % of the body weight at the start of the day before the treatment ([1]; day 2): 10.7%
ALP released into PBS ([1]; day 2, 1% w/v): 43.02 U/L
LDH released into PBS ([1]; day 2, 1% w/v): 93.01 U/L
Protein released into PBS ([1]; day 2, 1% w/v): 22.84 μg/30 μL
% WL, reduction in weight (weight loss) caused by the 15 minute treatment as % of initial body weight of the day ([1]; day 3): 8.06%
% MP, mucus production as % of the body weight at the start of the day before the treatment ([1]; day 3): 5.5%
ALP released into PBS ([1]; day 3, 1% w/v): 103.56 U/L
LDH released into PBS ([1]; day 3, 1% w/v): 135.93 U/L
Protein released into PBS ([1]; day 3, 1% w/v): 38.95 μg/30 μL
% WL, reduction in weight (weight loss) caused by the 15 minute treatment as % of initial body weight of the day ([1]; day 4): 11.28%
% MP, mucus production as % of the body weight at the start of the day before the treatment ([1]; day 4): 7.6%
ALP released into PBS ([1]; day 4, 1% w/v): 42.22 U/L
LDH released into PBS ([1]; day 4, 1% w/v): 146.89 U/L
Protein released into PBS ([1]; day 4, 1% w/v): 54.76 μg/30 μL
% WL, reduction in weight (weight loss) caused by the 15 minute treatment as % of initial body weight of the day ([1]; day 5): 8.03%
% MP, mucus production as % of the body weight at the start of the day before the treatment ([1]; day 5): 2.6%
ALP released into PBS ([1]; day 5, 1% w/v): 22.98 U/L
LDH released into PBS ([1]; day 5, 1% w/v): 136.19 U/L
Protein released into PBS ([1]; day 5, 1% w/v): 55.59 μg/30 μL
ranking order of increasing toxicity ([2]; Arion): PBS, 5% HPβCD<1% STDHF<1% SDC and 1% BAC
membrane damage (in words) ([2]; Arion, 1% w/v (SDC data in Table 1, Example 1)): severe membrane damage
reduction in body weight to % of the initial weight ([2]; Arion, 1% w/v, five days (SDC data from Example 1)): about 50%
ranking order of increasing toxicity ([3]; Limax): PBS, 5% HPβCD<1% STDHF<1% SDC and 1% BAC
membrane damage (in words) ([3]; Limax, 1% w/v): severe membrane damage
reduction in body weight to % of the initial weight ([3]; Limax, 1% w/v, five days): about 50%
% MP, mucus production as % of the body weight at the start of the day before the treatment ([3]; day 1, Limax): 11.16%
ALP released into PBS ([3]; day 1, Limax): 11.62 U/L
LDH released into PBS ([3]; day 1, Limax): 9.01 U/L
Protein released into PBS ([3]; day 1, Limax): 10.1 μg/30μL
% MP, mucus production as % of the body weight at the start of the day before the treatment ([3]; day 2, Limax): 10.27%
ALP released into PBS ([3]; day 2, Limax): 3.34 U/L
LDH released into PBS ([3]; day 2, Limax): 13.6 U/L
Protein released into PBS ([3]; day 2, Limax): 15.78 μg/30μL
% MP, mucus production as % of the body weight at the start of the day before the treatment ([3]; day 3, Limax): 13.01%
ALP released into PBS ([3]; day 3, Limax): 2.62 U/L
LDH released into PBS ([3]; day 3, Limax): 26.15 U/L
Protein released into PBS ([3]; day 3, Limax): 18.04 μg/30μL
% MP, mucus production as % of the body weight at the start of the day before the treatment ([3]; day 4, Limax): 19.38%
ALP released into PBS ([3]; day 4, Limax): 6.24 U/L
LDH released into PBS ([3]; day 4, Limax): 85.8 U/L
Protein released into PBS ([3]; day 4, Limax): 35.04 μg/30μL
% MP, mucus production as % of the body weight at the start of the day before the treatment ([3]; day 5, Limax): 8.11%
ALP released into PBS ([3]; day 5, Limax): 28.79 U/L
LDH released into PBS ([3]; day 5, Limax): 145.71 U/L
Protein released into PBS ([3]; day 5, Limax): 88.14 μg/30μL

% MP, mucus production ([2]; in vivo): 0%
mucus production (in words) ([2]; in vivo): no mucus production
protein and enzyme release (in words) ([2]; in vivo): low protein and enzyme release
mucus production (in words) ([3]; in vivo): no mucus production
protein and enzyme release (in words) ([3]; in vivo): low protein and enzyme release
Substance: hydroxypropyl-β-cyclodextrin [HPβCD]
ranking order of increasing toxicity ([2]; in vivo): PBS, 5% HPβCD<1% STDHF<1% SDC and 1% BAC
ranking order of increasing toxicity ([3]; in vivo): PBS, 5% HPβCD<1% STDHF<1% SDC and 1% BAC
